In patent US11999746B2, “Compounds” (GlaxoSmithKline Intellectual Property Development Limited, priority 2014, dated 2024):
Counter-ions that a name gives are not always drawn.

Assays:
[1] = molecular target: T1, recombinant human Lp-PLA2 (Homo sapiens, UniProt Q13093); assay: (1b) hrThioPAF assay, recombinant human Lp-PLA2; type: biochemical; conditions: Examples 266-412 were tested here, one experiment or average of multiple experiments, read-out: rhLp-PLA2 (pIC50) (converted)
T1 sequence (Q13093 22-441): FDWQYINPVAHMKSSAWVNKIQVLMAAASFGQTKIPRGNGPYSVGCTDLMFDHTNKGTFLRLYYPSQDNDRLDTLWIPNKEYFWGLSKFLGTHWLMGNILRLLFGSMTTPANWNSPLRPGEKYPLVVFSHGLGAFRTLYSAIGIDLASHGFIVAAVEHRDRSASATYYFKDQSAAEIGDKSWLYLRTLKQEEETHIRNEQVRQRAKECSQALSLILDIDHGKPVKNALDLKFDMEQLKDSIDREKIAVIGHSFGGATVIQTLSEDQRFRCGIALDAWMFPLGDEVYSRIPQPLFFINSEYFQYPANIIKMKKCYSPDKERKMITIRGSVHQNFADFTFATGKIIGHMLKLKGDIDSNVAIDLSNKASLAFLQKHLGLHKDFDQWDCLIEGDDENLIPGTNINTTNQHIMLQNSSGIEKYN
How it was run: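 Fluorogenic assay: 20 pM rhLp-PLA2 in 50 mM HEPES pH 7.4, 150 mM NaCl, 1 mM CHAPS with 1:3 serially diluted compounds; substrate mix of 40 μM 2-thio-PAF, 40 μM CPM, 400 μM NEM (pre-addition levels). 20 min at 25 °C in the dark; fluorescence ex 380/em 485 nm, pIC50 by curve fitting.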

Lp-PLA2 in human plasma = molecular target: T2, Lp-PLA2 in human plasma (Homo sapiens, UniProt Q13093); assay: (3b) Lp-PLA2 human plasma alternative Thio-PAF assay; type: biochemical; conditions: (3b) alternative Thio-PAF assay, pooled human plasma; Examples of 266-412 were tested here; read-out: pIC50 in the Lp-PLA2 human plasma assay (converted)
T2 construct: from tissue; host or cells: pooled human plasma
T2 sequence (Q13093 22-441): T1 sequence (Q13093 22-441)
Description: (3b) Alternative Thio-PAF Assay
The human plasma assay utilizes the same thioester analog of PAF as described in (1b) “hr ThioPAF” assay. This assay may detect the activity of Lp-PLA2 in human plasma, as determined by specific inhibition by Lp-PLA2 inhibitors.
The thio-PAF assay was run as a quenched 20 μL assay. Compounds source plate was prepared by making 1:3 (by volume) serial dilution of the compounds into pure DMSO on 96-well microplate. 5 μL of compounds on compound source plate were transferred to 96-well Corning 3686 (black) low-volume plates by STAR+(Hamilton) liquid dispenser. 10 μL pooled human plasma, which was previously aliquoted and frozen, was added. Plates were centrifuged for 30 sec at 1000 rpm. After 15 minutes preincubation at room temperature, 5 μL of substrate solution comprising 2 mM 2-thio-PAF [from ethanol stock], 52 μM CPM [from a DMSO stock] and 2.5 mM NEM (N-ethylmaleimide) [made fresh daily in DMSO] in assay buffer (50 mM HEPES, pH 7.4, 150 mM NaCl, 1 mM CHAPS) was added to 96-well Corning 3686 (black) low-volume plates. After 3 mins, reaction was quenched with 10 μL of 5% aqueous trifluoroacetic acid (TFA). Plates were centrifuged 30 sec at 1000 rpm, covered to protect from light and incubated for 10 min at room temperature. Plates were read at ex: 380 nm/em: 485 nm using Envision plate reader (Perkin Elmer). Raw data were transferred to Excel software and pIC50 data, curve and QC analysis was conducted by using XL fit module in Excel.

IC50 [1] [nM]	IC50 (Lp-PLA2 in human plasma) [nM]	SMILES
≤ 10000	≤ 100	COC(=O)N1CCN2c3cc(OCc4ccc(F)c(F)c4)nc(=O)n3CC2C1 (stereo not drawn) [Example E300, Methyl 7-((3,4-difluorobenzyl)oxy)-9-oxo-3,4,11,11a-tetrahydro-1H-pyrazino[1′,2′:3,4]imidazo[1,2-c]pyrimidine-2(9H)-carboxylate]
≤ 10000	≤ 100	CN(C)C(=O)N1CCN2c3cc(OCc4ccc(F)c(F)c4)nc(=O)n3CC2C1 (stereo not drawn) [Example E301, 7-((3,4-Difluorobenzyl)oxy)-N,N-dimethyl-9-oxo-3,4,11,11a-tetrahydro-1H-pyrazino[1′,2′:3,4]imidazo[1,2-c]pyrimidine-2(9H)-carboxamide]
≤ 10000	≤ 100	N#Cc1cc(COc2cc3n(c(=O)n2)CC2CN(C(=O)C4CCC4)CCN32)ccc1F (stereo not drawn) [Example E302, 5-(((2-(Cyclobutanecarbonyl)-9-oxo-2,3,4,9,11,11a-hexahydro-1H-pyrazino[1′,2′:3,4]imidazo[1,2-c]pyrimidin-7-yl)oxy)methyl)-2-fluorobenzonitrile]
≤ 10000	≤ 100	CC(C)C(=O)C(=O)N1CCN2c3cc(OCc4ccc(F)c(F)c4)nc(=O)n3CC2C1 (stereo not drawn) [Example E303, 1-(7-((3,4-Difluorobenzyl)oxy)-9-oxo-3,4,11,11a-tetrahydro-1H-pyrazino[1′,2′:3,4]imidazo[1,2-c]pyrimidin-2(9H)-yl)-3-methylbutane-1,2-dione]
≤ 10000	≤ 100	CCCN1CCN2c3cc(OCc4ccc(F)c(F)c4)nc(=O)n3CC2C1 (stereo not drawn) [Example E304, 7-((3,4-Difluorobenzyl)oxy)-2-propyl-3,4,11,11a-tetrahydro-1H-pyrazino[1′,2′:3,4]imidazo[1,2-c]pyrimidin-9(2H)-one]
≤ 10000	≤ 100	CC(C)CN1CCN2c3cc(OCc4ccc(F)c(F)c4)nc(=O)n3CC2C1 (stereo not drawn) [Example E305, 7-((3,4-Difluorobenzyl)oxy)-2-isobutyl-3,4,11,11a-tetrahydro-1H-pyrazino[1′,2′:3,4]imidazo[1,2-c]pyrimidin-9(2H)-one]
≤ 10000	≤ 100	CCOC(=O)N1CCN2c3cc(OCc4ccc(F)c(F)c4)nc(=O)n3CC2C1 (stereo not drawn) [Example E306, Ethyl 7-((3,4-difluorobenzyl)oxy)-9-oxo-3,4,11,11a-tetrahydro-1H-pyrazino[1′,2′:3,4]imidazo[1,2-c]pyrimidine-2(9H)-carboxylate]
≤ 10000	≤ 100	CC(C)OC(=O)N1CCN2c3cc(OCc4ccc(F)c(F)c4)nc(=O)n3CC2C1 (stereo not drawn) [Example E307, Isopropyl 7-((3,4-difluorobenzyl)oxy)-9-oxo-3,4,11,11a-tetrahydro-1H-pyrazino[1′,2′:3,4]imidazo[1,2-c]pyrimidine-2(9H)-carboxylate]
≤ 10000	≤ 100	CNC1(C(=O)N2CCN3c4cc(OCc5ccc(F)c(F)c5)nc(=O)n4CC3C2)CC1 (stereo not drawn) [Example E308, 7-((3,4-Difluorobenzyl)oxy)-2-(1-(methylamino)cyclopropanecarbonyl)-3,4,11,11a-tetrahydro-1H-pyrazino[1′,2′:3,4]imidazo[1,2-c]pyrimidin-9(2H)-one]
≤ 100	≤ 100	CC(C)C(=O)N1CCN2c3cc(OCc4ccc(F)c(F)c4)nc(=O)n3CC2C1 (stereo not drawn) [Example E310, 7-((3,4-Difluorobenzyl)oxy)-2-isobutyryl-3,4,11,11a-tetrahydro-1Hpyrazino[1′,2′:3,4] imidazo[1,2-c]pyrimidin-9(2H)-one]
≤ 100	≤ 100	CS(=O)(=O)N1CCN2c3cc(OCc4ccc(F)c(F)c4)nc(=O)n3CC2C1 (stereo not drawn) [Example E313, 7-((3,4-Difluorobenzyl)oxy)-2-(methylsulfonyl)-3,4,11,11a-tetrahydro-1H-pyrazino[1′,2′:3,4]imidazo[1,2-c]pyrimidin-9(2H)-one]
≤ 100	≤ 100	CC(=O)N1CCN2c3cc(OCc4ccc(F)c(F)c4)nc(=O)n3CC2C1 (stereo not drawn) [Example E315, 2-Acetyl-7-((3,4-difluorobenzyl)oxy)-3,4,11,11a-tetrahydro-1H-pyrazino[1′,2′:3,4]imidazo[1,2-c]pyrimidin-9(2H)-one]
≤ 10000	≤ 100	CN1CCN2c3cc(OCc4ccc(F)c(F)c4)nc(=O)n3CC2C1 (stereo not drawn) [Example E320, 7-((3,4-Difluorobenzyl)oxy)-2-methyl-3,4,11,11a-tetrahydro-1H-pyrazino[1,2′:3,4]imidazo[1,2-c]pyrimidin-9(2H)-one]
≤ 10000	≤ 100	Cc1ccc(Oc2c(F)cc(COc3cc4n(c(=O)n3)CC3CN(C)CCN43)cc2F)cn1 (stereo not drawn) [Example E321, 7-((3,5-Difluoro-4-((6-methylpyridin-3-yl)oxy)benzyl)oxy)-2-methyl-3,4,11,11a-tetrahydro-1Hpyrazino[1′,2′:3,4]imidazo[1,2-c]pyrimidin-9(2H)-one]
≤ 10000	≤ 100	N#Cc1cc(COc2cc3n(c(=O)n2)CC2CN(CC(F)(F)F)CCN32)ccc1F (stereo not drawn) [Example E322, 2-Fluoro-5-(((9-oxo-2-(2,2,2-trifluoroethyl)-2,3,4,9,11,11a-hexahydro-1H-pyrazino[1′,2′:3,4]imidazo[1,2-c]pyrimidin-7-yl)oxy)methyl)benzonitrile]
≤ 10000	≤ 100	N#Cc1cc(COc2cc3n(c(=O)n2)CC2CN(C(=O)C(F)(F)F)CCN32)ccc1F (stereo not drawn) [Example E323, 2-Fluoro-5-(((9-oxo-2-(2,2,2-trifluoroacetyl)-2,3,4,9,11,11a-hexahydro-1H-pyrazino[1′,2′:3,4]imidazo[1,2-c]pyrimidin-7-yl)oxy)methyl)benzonitrile]
≤ 10000	≤ 100	N#Cc1cc(COc2cc3n(c(=O)n2)CC2CN(CC(=O)O)CCN32)ccc1F (stereo not drawn) [Example E324, 2-(7-((3-Cyano-4-fluorobenzyl)oxy)-9-oxo-3,4,11,11a-tetrahydro-1H-pyrazino[1,2′:3,4]imidazo[1,2-c]pyrimidin-2(9H)-yl)acetic acid, trifluoroacetic acid Salt]
≤ 10000	≤ 100	N#Cc1cc(COc2cc3n(c(=O)n2)CC2CN(CCC(=O)O)CCN32)ccc1F (stereo not drawn) [Example E325, 3-(7-((3-Cyano-4-fluorobenzyl)oxy)-9-oxo-3,4,11,11a-tetrahydro-1H-pyrazino[1,2′:3,4]imidazo[1,2-c]pyrimidin-2(9H)-yl)propanoic acid]
≤ 10000	≤ 100	N#Cc1cc(COc2cc3n(c(=O)n2)CC2COCCN32)ccc1F (stereo not drawn) [Example E329, 2-Fluoro-5-(((9-oxo-1,3,4,9,11,11a-hexahydropyrimido[6′,1′:2,3]imidazo[5,1-c][1,4]oxazin-7-yl)oxy)methyl)benzonitrile]
≤ 10000	≤ 100	O=C(C1CC1)N1CCN2c3cc(OCc4ccc(F)c(F)c4)nc(=O)n3CC2C1 (stereo not drawn) [Example E330, 2-(Cyclopropanecarbonyl)-7-((3,4-difluorobenzyl)oxy)-3,4,11,11a-tetrahydro-1H-pyrazino[1′,2′:3,4]imidazo[1,2-c]pyrimidin-9(2H)-one]
≤ 10000	≤ 100	O=c1nc(OCc2ccc(F)c(F)c2)cc2n1CC1CN(S(=O)(=O)C3CC3)CCN21 (stereo not drawn) [Example E331, 2-(Cyclopropylsulfonyl)-7-((3,4-difluorobenzyl)oxy)-3,4,11,11a-tetrahydro-1H-pyrazino[1′,2′:3,4]imidazo[1,2-c]pyrimidin-9(2H)-one]
